Experimental findings from patent US9889126B2, “Use of naratriptan in the treatment of rosacea” (GALDERMA RESEARCH & DEVELOPMENT, priority 2013, dated 2018) are described below.

In data set [1] the test system is neurogenic inflammation induced in mouse ear. Description: Neurogenic inflammation assay, mouse ear, reziniferatoxin (RTX). It counts as in vivo. Here is the method: The compound was then tested in a water/ethanol carrier to increase solubility.
Data set [2] concerns human subcutaneous artery. The data set can be described thus: Vascular tonicity of human subcutaneous arteries ex vivo, myography. It counts as cell-based. Conditions: for EC50: sc, dose-response. Here is the method:
(§1) Human subcutaneous veins are isolated from healthy human skin derived from plastic surgery operative waste (abdominal plasty). On receipt the skin sample is held at 4° C. in a receptacle containing physiological saline solution (PSS) 1× at pH=7.4. Dissection, isolation and mounting of the veins are conducted in cold PSS pH=7.4 using straight forceps and a stereomicroscope. Once the vein is isolated and cleaned of surrounding fat and conjunctive tissue, a segment 2 mm in length and diameter of between 100 and 600 μm is mounted in the myograph chamber between two 40 μm tungsten wires attached to removable jaws connected to the tension sensor and held in physiological saline solution (PSS) at pH=7.4 and 37° C. To perform the myography study the vein is placed at working pre-tension (g) corresponding to physiological pressure of 18 mmHg. Pre-tensioning is obtained by mechanical action to draw apart the tungsten wires (40 μm). The viability of the vessel is verified by depolarising the membrane of the vessel smooth muscle cells by increasing the concentration of potassium in the chamber. To do so the PSS solution contained in each chamber is replaced by a solution containing 80 mM KCl at pH=7.4 and pre-heated to 37° C. This step must be repeated twice with 1×PSS washing to cause relaxation between each contraction. At this stage if there is no change in measured tension the isolated vessel is considered non-viable. Naratriptan was evaluated by dose-response (n=1) to determine its maximum contraction intensity (Emax) and strength (EC50). The vessel was treated with increasing successive doses of product added every 3 minutes to the myograph chamber. Tension data (g) are successively converted to: • Tension (mN) 1 g=9.81 mN • Tension applied to the vessel wall (mN/mm): by dividing the tension value in mN by twice the length of the vessel i.e. 4 mm.
(§2) Data are then expressed for the vasoconstrictor product in percentage contraction (%) taking as 100% the value obtained for treatment with 80 mM KCl at step 1 to verify vessel viability.
(§3) The method used for this study is identical to the method used in Example 1. To perform myographic studies the vein is placed at a pre-tension (g) corresponding to physiological pressure of 18 mmHg while the artery is placed at a pre-tension of 90 mmHg since an artery wall is thicker than a vein wall.
(§4) The myograph apparatus has four independent chambers. Therefore four vessel segments were mounted in parallel in each study. Each compound was subjected to dose-response evaluation for each type of vessel (n=1). The vessel was therefore treated with successive, increasing concentrations of product added every 3 minutes to the myograph chamber. The tested compounds were naratriptan, sumatriptan, almotriptan and Rizatriptan.

The nature of data set [3]: Release and penetration into dermatomized human skin (Franz cells). The settings on record: 2% in PBS; for Mass balance: mean. It counts as in vitro ADME.
The subject of the next data set is human subcutaneous veins. The data set can be described thus: Vascular tonicity of human subcutaneous veins ex vivo, myography. Type of data set: cell-based. Conditions: for EC50 / Emax (% max. contraction vs. 80 mM KCL): human subcutaneous vein, n=1; for EC50: dose-response. The procedure: as §1, §2, §3, §4

In the case of `CNS(=O)(=O)CCc1ccc2[nH]cc(C3CCN(C)CC3)c2c1` [Naratriptan, N-methyl-2-[3-(1-methylpiperidin-4-yl)-1H-indol-5-yl]ethanesulfonamide], in data set [1] (1% in acetone carrier, up to 45 minutes after treatment, single RTX application), the “Inhibition of neurogenic inflammation” value is listed as “significantly inhibited”. The “Inhibition of neurogenic inflammation” value in data set [1] (1% topical in water/ethanol carrier, treatment time 15 minutes) is “significant inhibition”. Also, in data set [2] (n=1), the “Emax (% max. contraction vs. 80 mM KCl)” value worked out at 82% and the EC50 worked out at 20 nM. For the same molecule, in data set [3], the Total skin was 3.46 % applied dose and the Mass balance worked out at 91.22 % applied dose. In data set [3] (listed as Naratriptan hydrochloride), this molecule had a Total skin of 3.61 % applied dose. Besides, the “Persistent effect on the human vein after successive washings, time after removal of the compound” value in the data set on human subcutaneous veins (Example 1, after removal of compound from the chamber) is not above 90 min. Also, in the data set with human subcutaneous veins, the midpoint of the response, the EC50, lay at 13 nM and the “Emax (% max. contraction vs. 80 mM KCL)” value is on record as 105%.
Turning to `CN(C)CCc1c[nH]c2ccc(Cn3cncn3)cc12` [Rizatriptan, rizatriptan], in data set [2] (n=1), the “Emax (% max. contraction vs. 80 mM KCl)” value was determined as 54% and the EC50 worked out at 217 nM. Besides, in the data set on human subcutaneous veins, the EC50 was found to be 93 nM and the “Emax (% max. contraction vs. 80 mM KCL)” value is reported as 94%.
Take `CN(C)CCc1c[nH]c2ccc(CS(=O)(=O)N3CCCC3)cc12` [Almotriptan, almotriptan]: in data set [3], the Total skin is given as 1.86 % applied dose and the Mass balance is 94.16 % applied dose. In the data set with human subcutaneous veins, the EC50 worked out at 62 nM and the “Emax (% max. contraction vs. 80 mM KCL)” value is 97%.
On to `CNS(=O)(=O)Cc1ccc2[nH]cc(CCN(C)C)c2c1` [Sumatriptan, sumatriptan], for which, in data set [2] (n=1), the “Emax (% max. contraction vs. 80 mM KCl)” value is 61% and the concentration for a half-maximal effect (EC50) is 138 nM. Besides, the “Emax (% max. contraction vs. 80 mM KCl)” value in data set [2] (n=1, listed as sumatriptan) was 70%. In the data set with human subcutaneous veins, the EC50 stood at 65 nM and the “Emax (% max. contraction vs. 80 mM KCL)” value was found to be 101%.
